Columns and labels:
HCC1599 [1] = test: drug sensitivity score (DSS), CellTiter-Blue viability (DSS (AUC-based score)); higher = stronger viability inhibition; extreme values may be limits of the assay; settings: incubation time: 72 h
In short: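 Each 384-well plate was normalised to two references, 0.1 % DMSO and a positive kill control. Breast cancer cell lines (20 µl suspension) had been seeded onto compound at 5 or 9 concentrations and incubated 72 h, after which viability was read by CellTiter-Blue fluorescence at 560/590 nm. The drug sensitivity score reflects the area under the fitted dose-response curve.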

BT-474 = test: normalised viability (% of control), CellTiter-Blue; higher = more viable cells (about 100 = DMSO control); settings: 100 nM; incubation time: 72 h
Description: (§1)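 DSRT, CellTiter-Blue viability, 72 h incubation. Signal is normalised to DMSO and benzethonium chloride controls. Value is the normalised response at dose 3.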

HDQ-P1 [2] = test: as above; settings: 10 nM; incubation time: 72 h
Description: as §1

MDA-MB-231 = test: as above; settings: 100 nM; incubation time: 72 h
Description: as §1

MDA-MB-468 [3] = test: as above; settings: 100 nM; incubation time: 72 h
Description: as §1

HCC1937 = test: as above; settings: 100 nM; incubation time: 72 h
Description: as §1

SK-BR-3 = test: as above; settings: 100 nM; incubation time: 72 h
Description: as §1

DU-4475 [4] = test: as above; settings: 10 nM; incubation time: 72 h
Description: as §1

MFM-223 = test: as above; settings: 100 nM; incubation time: 72 h
Description: as §1

BT-549 = test: as above; settings: 100 nM; incubation time: 72 h
Description: as §1

MDA-MB-436 = test: as above; settings: 100 nM; incubation time: 72 h
Description: as §1

CAL-148 [5] = test: as above; settings: 10 nM; incubation time: 72 h
Description: as §1

Hs578T = test: as above; settings: 100 nM; incubation time: 72 h
Description: as §1

MDA-MB-453 [6] = test: as above; settings: 10 nM; incubation time: 72 h
Description: as §1

HCC1143 = test: as above; settings: 100 nM; incubation time: 72 h
Description: as §1

HCC1599 [7] = test: as above; settings: 100 nM; incubation time: 72 h
Description: as §1

CAL-85-1 [8] = test: as above; settings: 10 nM; incubation time: 72 h
Description: as §1

CAL-51 [9] = test: as above; settings: 10 nM; incubation time: 72 h
Description: as §1

CAL-120 = test: as above; settings: 100 nM; incubation time: 72 h
Description: as §1

HDQ-P1 [10] = test: as above; settings: 1000 nM; incubation time: 72 h
Description: (§2)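 DSRT, CellTiter-Blue viability, 72 h incubation. Signal is normalised to DMSO and benzethonium chloride controls. Value is the normalised response at dose 7.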

DU-4475 [11] = test: as above; settings: 1000 nM; incubation time: 72 h
Description: as §2

CAL-148 [12] = test: as above; settings: 1000 nM; incubation time: 72 h
Description: as §2

MDA-MB-453 [13] = test: as above; settings: 1000 nM; incubation time: 72 h
Description: as §2

CAL-85-1 [14] = test: as above; settings: 1000 nM; incubation time: 72 h
Description: as §2

CAL-51 [15] = test: as above; settings: 1000 nM; incubation time: 72 h
Description: as §2

MDA-MB-468 [16] = test: drug sensitivity score (DSS), CellTox Green (DSS (AUC-based score)); higher = stronger drug effect (viability inhibition or cytotoxicity); extreme values may be limits of the assay; settings: incubation time: 72 h
In short: (§3)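 The area under the fitted dose-response curve was used to calculate the drug sensitivity score. Cells from breast cancer lines were incubated for 72 h in 384-well plates with compound at 5 concentrations spaced 10-fold over a 10,000-fold range specific to each compound. Plates were read for CellTox Green and then CellTiter-Glo, and normalised to 0.1 % DMSO and a positive kill control.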

CAL-85-1 [17] = test: as above; settings: incubation time: 72 h
In short: as §3

| SMILES | drug sensitivity score (HCC1599 [1]) | normalised viability (BT-474) [%] | normalised viability (HDQ-P1 [2]) [%] | normalised viability (MDA-MB-231) [%] | normalised viability (MDA-MB-468 [3]) [%] | normalised viability (HCC1937) [%] | normalised viability (SK-BR-3) [%] | normalised viability (DU-4475 [4]) [%] | normalised viability (MFM-223) [%] | normalised viability (BT-549) [%] | normalised viability (MDA-MB-436) [%] | normalised viability (CAL-148 [5]) [%] | normalised viability (Hs578T) [%] | normalised viability (MDA-MB-453 [6]) [%] | normalised viability (HCC1143) [%] | normalised viability (HCC1599 [7]) [%] | normalised viability (CAL-85-1 [8]) [%] | normalised viability (CAL-51 [9]) [%] | normalised viability (CAL-120) [%] | normalised viability (HDQ-P1 [10]) [%] | normalised viability (DU-4475 [11]) [%] | normalised viability (CAL-148 [12]) [%] | normalised viability (MDA-MB-453 [13]) [%] | normalised viability (CAL-85-1 [14]) [%] | normalised viability (CAL-51 [15]) [%] | drug sensitivity score (MDA-MB-468 [16]) | drug sensitivity score (CAL-85-1 [17]) |
| --- | --- | --- | --- | --- | --- | --- | --- | --- | --- | --- | --- | --- | --- | --- | --- | --- | --- | --- | --- | --- | --- | --- | --- | --- | --- | --- | --- |
| CC(C)(C#N)c1cc(Cn2cncn2)cc(C(C)(C)C#N)c1 [Anastrozole] | 0 | 101 | 99.2 | 92.7 | 107 | 93.1 | 77.3 | 98.6 | 94.2 | 95.7 | 96 | 86.8 | 88.4 | 97.7 | 100 | 102 | 90.7 | 109 | 88.5 | 84.2 | 91.3 | 90.4 | 105 | 90.8 | 93.9 | 0 | 0 |
| CN(C)CCN1C(=O)c2cccc3cc(N)cc(c23)C1=O [Amonafide] | 1.04 | 119 | 105 | 88 | 113 | 109 | 76 | 95.8 | 87.5 | 94.9 | 104 | 85.2 | 84.8 | 94.1 | 87 | 102 | 91.6 | 111 | 95.4 | 93.8 | 86.8 | 74.5 | 81.7 | 84 | 99.1 | 0 | 0 |
| O=C(O)CCCc1ccc(N(CCCl)CCCl)cc1 [Chlorambucil] | 0 | 115 | 112 | 103 | 99.8 | 87.9 | 97.8 | 109 | 95.5 | 100 | 95.8 | 100 | 106 | 106 | 104 | 132 | 96 | 107 | 109 | 98.9 | 103 | 105 | 113 | 97.5 | 101 | 0 | 0 |
| CNNCc1ccc(C(=O)NC(C)C)cc1 [Procarbazine] | 0 | 114 | 128 | 105 | 102 | 85.3 | 92 | 112 | 92.8 | 111 | 97 | 98.1 | 104 | 105 | 98.7 | 94.8 | 97.8 | 109 | 106 | 95.7 | 105 | 87.9 | 113 | 89.2 | 100 | 3.72 | 1.2 |

From the supplement of paper PMC4862054
